Measurements published in ChEMBL document CHEMBL5096143, “Current status in the discovery of dual BET/HDAC inhibitors” (Bioorg Med Chem Lett, 2021).
Each block holds one molecule with its values, some of them ahead of it.

Tests used:
[1] = target: T1, Bromodomain-containing protein 4 (Homo sapiens, UniProt O60885); test: Inhibition of GST-tagged BRD4 (unknown origin) by HTRF assay
[2] = target: T1, Bromodomain-containing protein 4
Description: Inhibition of BRD4 (unknown origin) by ELISA

Histone deacetylase = test: Inhibition of HDAC (unknown origin) by ELISA; type: protein assay, Homo sapiens
U-937 = test: Cytotoxicity against human U-937 cells assessed as cell viability at 3 uM by MTT assay relative to control; type: functional; conditions: read-out: Activity
[3] = target: T1, Bromodomain-containing protein 4; test: Inhibition of BRD4-BD1 (unknown origin)
Histone deacetylase 1 = Histone deacetylase 1 (Homo sapiens, UniProt Q13547); test: Inhibition of HDAC1 (unknown origin)
Chain of Histone deacetylase 1 (Q13547 whole entry): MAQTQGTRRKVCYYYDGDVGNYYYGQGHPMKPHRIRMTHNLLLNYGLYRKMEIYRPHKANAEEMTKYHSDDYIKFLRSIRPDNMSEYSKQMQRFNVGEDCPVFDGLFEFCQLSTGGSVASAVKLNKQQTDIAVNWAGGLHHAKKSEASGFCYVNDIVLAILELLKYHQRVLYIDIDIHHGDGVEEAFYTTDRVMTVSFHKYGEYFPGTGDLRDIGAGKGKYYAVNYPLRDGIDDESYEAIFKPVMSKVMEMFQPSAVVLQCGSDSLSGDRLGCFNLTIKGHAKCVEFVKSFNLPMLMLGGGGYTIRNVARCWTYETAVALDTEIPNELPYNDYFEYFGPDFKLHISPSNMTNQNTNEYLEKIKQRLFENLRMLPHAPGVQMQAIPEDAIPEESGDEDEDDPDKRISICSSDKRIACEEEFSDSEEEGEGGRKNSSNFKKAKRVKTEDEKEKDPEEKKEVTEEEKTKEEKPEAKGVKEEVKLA

[4] = target: T1, Bromodomain-containing protein 4; test: Inhibition of BRD4-BD2 (unknown origin)
Histone deacetylase 3 = Histone deacetylase 3 (Homo sapiens, UniProt O15379); test: Inhibition of human HDAC3 using Boc-Lys(Ac)-AMC as substrate by fluorescence based assay
Chain of Histone deacetylase 3 (O15379 whole entry): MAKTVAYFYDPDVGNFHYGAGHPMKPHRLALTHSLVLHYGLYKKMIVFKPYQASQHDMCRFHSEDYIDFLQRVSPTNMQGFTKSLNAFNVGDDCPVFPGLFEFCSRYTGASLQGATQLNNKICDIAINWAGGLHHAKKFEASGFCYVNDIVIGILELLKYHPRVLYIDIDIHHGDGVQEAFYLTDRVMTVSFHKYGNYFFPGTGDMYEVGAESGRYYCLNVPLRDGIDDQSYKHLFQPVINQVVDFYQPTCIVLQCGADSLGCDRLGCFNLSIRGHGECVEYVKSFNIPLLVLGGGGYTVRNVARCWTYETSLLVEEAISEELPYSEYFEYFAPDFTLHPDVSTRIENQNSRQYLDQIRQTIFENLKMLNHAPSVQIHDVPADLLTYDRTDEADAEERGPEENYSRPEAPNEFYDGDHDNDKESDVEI

[5] = target: T2, Bromodomain testis-specific protein (Homo sapiens, UniProt Q58F21); test: Inhibition of recombinant BRDT-BD1 (unknown origin) by TR-FRET assay
[6] = target: T2, Bromodomain testis-specific protein; test: Inhibition of recombinant BRDT-BD2 (unknown origin) by TR-FRET assay
[7] = target: T3, Bromodomain-containing protein 2 (Homo sapiens, UniProt P25440); test: Inhibition of recombinant BRD2-BD1 (unknown origin) by TR-FRET assay
T3 sequence (P25440 whole entry): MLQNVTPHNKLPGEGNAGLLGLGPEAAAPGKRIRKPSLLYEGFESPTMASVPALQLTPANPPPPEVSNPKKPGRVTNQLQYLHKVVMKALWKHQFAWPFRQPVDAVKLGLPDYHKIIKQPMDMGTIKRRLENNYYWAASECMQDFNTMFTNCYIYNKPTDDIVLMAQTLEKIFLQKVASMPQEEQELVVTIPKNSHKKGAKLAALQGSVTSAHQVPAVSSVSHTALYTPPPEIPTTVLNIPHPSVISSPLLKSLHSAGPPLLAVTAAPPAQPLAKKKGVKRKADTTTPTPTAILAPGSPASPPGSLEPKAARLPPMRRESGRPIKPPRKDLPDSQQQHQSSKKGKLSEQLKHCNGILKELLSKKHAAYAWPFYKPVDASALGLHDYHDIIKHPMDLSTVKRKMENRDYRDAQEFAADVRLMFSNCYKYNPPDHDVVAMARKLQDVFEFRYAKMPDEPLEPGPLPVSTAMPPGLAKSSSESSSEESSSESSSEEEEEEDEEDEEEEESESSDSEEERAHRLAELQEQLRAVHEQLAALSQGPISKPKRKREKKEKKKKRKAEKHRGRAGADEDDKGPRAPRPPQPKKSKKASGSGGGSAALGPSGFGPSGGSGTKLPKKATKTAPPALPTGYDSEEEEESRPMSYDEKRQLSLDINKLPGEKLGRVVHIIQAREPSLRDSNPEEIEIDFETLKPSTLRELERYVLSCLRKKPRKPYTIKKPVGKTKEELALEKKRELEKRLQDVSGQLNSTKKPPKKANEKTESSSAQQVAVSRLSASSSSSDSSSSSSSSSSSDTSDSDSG

[8] = target: T3, Bromodomain-containing protein 2; test: Inhibition of recombinant BRD2-BD2 (unknown origin) by TR-FRET assay
[9] = target: T4, Bromodomain-containing protein 3 (Homo sapiens, UniProt Q15059); test: Inhibition of recombinant BRD3-BD1 (unknown origin) by TR-FRET assay
T4 sequence (Q15059 whole entry): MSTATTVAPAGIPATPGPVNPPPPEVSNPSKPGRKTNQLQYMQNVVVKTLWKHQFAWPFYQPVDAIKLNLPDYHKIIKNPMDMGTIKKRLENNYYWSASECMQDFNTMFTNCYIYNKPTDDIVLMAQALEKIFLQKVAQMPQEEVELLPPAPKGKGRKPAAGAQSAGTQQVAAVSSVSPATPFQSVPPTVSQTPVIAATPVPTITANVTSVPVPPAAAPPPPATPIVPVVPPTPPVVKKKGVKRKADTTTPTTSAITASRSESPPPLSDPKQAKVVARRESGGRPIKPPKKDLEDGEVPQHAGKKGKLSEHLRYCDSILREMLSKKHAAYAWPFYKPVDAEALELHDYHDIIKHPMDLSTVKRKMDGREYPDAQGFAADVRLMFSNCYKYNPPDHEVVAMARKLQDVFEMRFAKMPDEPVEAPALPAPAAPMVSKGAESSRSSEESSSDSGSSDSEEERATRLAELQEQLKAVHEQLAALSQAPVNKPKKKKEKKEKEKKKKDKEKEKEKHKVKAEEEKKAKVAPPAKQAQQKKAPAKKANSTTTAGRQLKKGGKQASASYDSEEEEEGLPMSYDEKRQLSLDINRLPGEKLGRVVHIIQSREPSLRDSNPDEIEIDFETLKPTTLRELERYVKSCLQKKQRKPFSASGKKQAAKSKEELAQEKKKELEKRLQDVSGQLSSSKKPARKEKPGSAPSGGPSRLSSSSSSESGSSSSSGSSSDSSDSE

[10] = target: T4, Bromodomain-containing protein 3; test: Inhibition of recombinant BRD3-BD2 (unknown origin) by TR-FRET assay

- IC50 [1]: < 1000 nM
SMILES: COC(c1c(F)cccc1Cl)c1c[nH]c2ncc(-c3c(C)noc3C)cc12 (stereo not drawn)

SMILES: Cc1sc2c(c1C)C(c1ccc(Cl)cc1)=N[C@@H](CC(=O)NCCCC(=O)Nc1ccccc1N)c1nnc(C)n1-2
- IC50 [2]: 29.6 nM
- IC50 (Histone deacetylase): 31.24 nM
- viability at 3 µM (U-937): 16.1%

SMILES: Cc1sc2c(c1C)C(c1ccc(Cl)cc1)=N[C@@H](CC(=O)Nc1ccc(C(=O)Nc3ccccc3N)cc1)c1nnc(C)n1-2
- IC50 [3]: 720 nM
- IC50 (Histone deacetylase 1): 290 nM
- IC50 [4]: 74 nM

- IC50 [2]: 43.1 nM
SMILES: O=C(CCCCCCC(=O)Nc1ccccc1)NO [VORINOSTAT]

- IC50 (Histone deacetylase 3): 60 nM
SMILES: O=C(CCCCCCn1cc(Cc2ccccc2)c2ccccc21)NO

SMILES: Cc1sc2c(c1C)C(c1ccc(Cl)cc1)=N[C@@H](CC(=O)NCc1ccc(/C=C/C(=O)NO)cc1)c1nnc(C)n1-2
- IC50 [3]: 1350 nM
- IC50 (Histone deacetylase 1): > 20000 nM
- IC50 [4]: 1580 nM

SMILES: Cc1sc2c(c1C)C(c1ccc(Cl)cc1)=N[C@@H](CC(=O)Nc1ccc(C(=O)NO)cc1)c1nnc(C)n1-2
- IC50 [5]: 11 nM
- IC50 [6]: 11 nM
- IC50 [7]: 11 nM
- IC50 [8]: 11 nM
- IC50 [9]: 11 nM
- IC50 [10]: 11 nM

- IC50 [3]: 250 nM
- IC50 (Histone deacetylase 1): 50 nM
SMILES: CC(=O)N1c2ccc(-c3ccc(NC(=O)CCCCCCC(=O)NO)cc3)cc2[C@H](NC(=O)OC(C)C)C[C@@H]1C

SMILES: Cc1sc2c(c1C)C(c1ccc(Cl)cc1)=N[C@@H](CC(=O)Nc1ccc(NC(=O)CCCCCCC(=O)NO)cc1)c1nnc(C)n1-2
- IC50 [3]: 4530 nM
- IC50 (Histone deacetylase 1): 1110 nM
- IC50 [4]: 11000 nM
